Where two headings read alike, the source gives them in different places.
Columns and labels:
[1] = log P determination by HPLC on reversed-phase (C18) columns, OECD Guideline 117; format: physicochemical; conditions: for chromatographic logP: reversed-phase (C18) HPLC column
Procedure: The log P values were determined in accordance with OECD Guideline 117 (EC Directive 92/69/EEC) by HPLC (high-performance liquid chromatography) using reversed-phase (RP) columns (C18), by the following methods:
[a] The LC-MS determination in the acidic range was carried out at pH 2.7 with 0.1% aqueous formic acid and acetonitrile (contains 0.1% formic acid) as mobile phases; linear gradient from 10% acetonitrile to 95% acetonitrile.
[b] LC-MS determination in the neutral range was carried out at pH 7.8 with 0.001 molar aqueous ammonium hydrogencarbonate solution and acetonitrile as mobile phases; linear gradient from 10% acetonitrile to 95% acetonitrile.

Myzus persicae [2] = assay: Myzus persicae - spray test (Chinese cabbage leaf discs); format: in vivo; conditions: after 6 days; for pest or weed control at 500 g/ha: Myzus persicae, foliar, 144 h, read-out: efficacy in % (aphids killed)
Procedure: Myzus persicae—Spray Test
Solvent: 78 parts by weight of acetone • • 1.5 parts by weight of dimethylformamide
Emulsifier: alkylaryl polyglycol ether
To produce a suitable preparation of active compound, 1 part by weight of active compound is dissolved using the specified parts by weight of solvent and made up with water containing an emulsi fier concentration of 1000 ppm until the desired concentration is attained. To produce further test concentrations, the formulation is diluted with emulsifier-containing water.
Discs of Chinese cabbage leaves (Brassica pekinensis) infested by all stages of the green peach aphid (Myzus persicae) are sprayed with an active compound formulation of the desired concentration.
After 6 days, the efficacy in % is determined. 100% means that all the aphids have been killed; 0% means that no aphids have been killed.

Myzus persicae [3] = assay: Myzus persicae - oral test; format: in vivo; conditions: after 5 days; for pest or weed control at 20 ppm: Myzus persicae, 120 h, read-out: efficacy in % (aphids killed); for efficacy in % (aphids killed): 20 ppm
Procedure: Solvent: 100 parts by weight of acetone
Subsequently, the plates are sealed with parafilm, which a mixed population of green peach aphids (Myzus persicae) within a second microtitre plate is able to puncture and imbibe the solution through it.
After 5 days, the efficacy in % is determined. 100% means that all the aphids have been killed; 0% means that no aphids have been killed.

[4] = pH 2.7, HPLC, acidic range pH 2.7, 0.1% aqueous formic acid/acetonitrile, read-out: logp-acidic
[5] = pH 7.8, HPLC, neutral range pH 7.8, 0.001 molar aqueous ammonium hydrogencarbonate/acetonitrile, read-out: logp-neutral
[6] = HPLC, acidic range pH 2.7, 0.1% aqueous formic acid/acetonitrile
[7] = HPLC, neutral range pH 7.8, 0.001 molar aqueous ammonium hydrogencarbonate/acetonitrile

SMILES	logp-acidic ([1]; pH 2.7)	logp-neutral ([1]; pH 7.8)	efficacy in % (aphids killed) (Myzus persicae [2]; 500 g/ha) [%]	efficacy in % (aphids killed) (Myzus persicae [3]) [%]	further results
Cc1cc(F)c(-c2ncc(C(=O)N(C)c3cccnc3)n2C)cc1SCC(F)(F)F [Example 2]					chromatographic logP [1, 4]: 2.23; chromatographic logP [1, 5]: 2.48; pest or weed control at 500 g/ha (Myzus persicae [2]; 500 g/ha): 90%; pest or weed control at 20 ppm (Myzus persicae [3]): 100%
CSc1cccc(-c2ncc(C(=O)N(C)c3cccnc3)n2C)c1 [Example 3]	1.24	1.75	90	100	
CN(C(=O)c1cnc(-c2cccc([S+]([O-])CC(F)(F)F)c2)n1C)c1cccnc1 (stereo not shown) [Example 5]	1.07	1.43	90	100	
CN(C(=O)c1cnc(-c2cccnc2)n1C)c1cccnc1 [Example 7]					chromatographic logP [1, 4]: 0.18; pest or weed control at 500 g/ha (Myzus persicae [2]; 500 g/ha): 90%; pest or weed control at 20 ppm (Myzus persicae [3]): 100%
Cc1cc(C)cc(-c2ncc(C(=O)N(C)c3cccnc3)n2C)c1 [Example 8]				100	logp-acidic [1, 6]: 1.16; efficacy in % (aphids killed) (Myzus persicae [2]; 100 g/ha): 90%
CN(C(=O)c1cnc(-c2ccccc2Cl)n1C)c1cccnc1 [Example 9]			100	100	logp-acidic [1, 6]: 1.10
CN(C(=O)c1cnc(-c2cccc(Cl)c2)n1C)c1cccnc1 [Example 10]			90	100	logp-acidic [1, 6]: 1.29
CN(C(=O)c1cnc(-c2ccc(Cl)c(Cl)c2)n1C)c1cccnc1 [Example 13]			90	100	logp-acidic [1, 6]: 1.79
CN(C(=O)c1cnc(-c2cccn2C)n1C)c1cccnc1 [Example 14]					chromatographic logP [1, 4]: 0.62; pest or weed control at 500 g/ha (Myzus persicae [2]; 500 g/ha): 90%; pest or weed control at 20 ppm (Myzus persicae [3]): 100%
CN(C(=O)c1cnc(-c2ccoc2)n1C)c1cccnc1 [Example 15]			90	100	logp-acidic [1, 6]: 0.29
CN(C(=O)c1cnc(-c2cccc(SC(F)(F)F)c2)n1C)c1cccnc1 [Example 17]	2.00	2.28	90	100	
CN(C(=O)c1cnc(-c2cccc(SCC3CC3)c2)n1C)c1cccnc1 [Example 18]	1.87	2.36	90	100	
COCc1cccc(-c2ncc(C(=O)N(C)c3cccnc3)n2C)c1 [Example 19]			90	90	logp-acidic [1, 6]: 0.86; logp-neutral [1, 7]: 1.43
CN(C(=O)c1cnc(-c2cccc(COC3CCOCC3)c2)n1C)c1cccnc1 [Example 20]					chromatographic logP [1, 4]: 1.11; chromatographic logP [1, 5]: 1.57; pest or weed control at 500 g/ha (Myzus persicae [2]; 500 g/ha): 90%
CN(C(=O)c1cnc(-c2cccc(S(C)(=O)=O)c2)n1C)c1cccnc1 [Example 22]	0.75	1.08	100	100	
CSc1cc(-c2ncc(C(=O)N(C)c3cccnc3)n2C)ccc1C [Example 23]	1.43	2.03	100	100	
CN(C(=O)c1cnc(-c2cnn(-c3ccccc3C#N)c2)n1C)c1cccnc1 [Example 24]	1.07	1.49	90	100	
CN(C(=O)c1cnc(-c2cnn(-c3ccc(F)cc3)c2)n1C)c1cccnc1 [Example 25]	1.21	1.68	90	100	

SMILES	logp-acidic ([1]; pH 2.7)	logp-neutral ([1]; pH 7.8)	efficacy in % (aphids killed) (Myzus persicae [2]; 500 g/ha) [%]	efficacy in % (aphids killed) (Myzus persicae [3]) [%]	further results
CN(C(=O)c1cnc(-c2cnn(-c3ccccc3)c2)n1C)c1cccnc1 [Example 26]	1.19	1.70	90	100	
CN(C(=O)c1cnc(-c2cccc3ccccc23)n1C)c1cccnc1 [Example 27]	1.35	1.89	90	100	
COC(=O)c1cccc2c(-c3ncc(C(=O)N(C)c4cccnc4)n3C)cccc12 [Example 28]	1.56	1.95	90	100	
COC(=O)c1cc(F)ccc1-c1ncc(C(=O)N(C)c2cccnc2)n1C [Example 29]	1.04	1.55	90	100	
CN(C(=O)c1cnc(-c2ccc(F)c3ccccc23)n1C)c1cccnc1 [Example 30]	1.57	2.05	90	100	
CN(C(=O)c1cnc(-c2ccncc2)n1C)c1cccnc1 [Example 33]					pest or weed control at 500 g/ha (Myzus persicae [2]; 500 g/ha): 100%; pest or weed control at 20 ppm (Myzus persicae [3]): 100%
CCOC(=O)COc1cccc(-c2ncc(C(=O)N(C)c3cccnc3)n2C)c1 [Example 41]	1.18	1.70			
CCOC(=O)COc1cc(-c2ncc(C(=O)N(C)c3cccnc3)n2C)cc(F)c1F [Example 42]	1.80	2.02			
CCOC(=O)COc1cc(-c2ncc(C(=O)N(C)c3cccnc3)n2C)ccc1F [Example 43]	1.44				
COc1ccc(OC)c(-c2ncc(C(=O)N(C)c3cccnc3)n2C)c1 [Example 85]	0.9			100	
COc1ccc(-c2ncc(C(=O)N(C)c3cccnc3)n2C)cc1[N+](=O)[O-] [Example 96]					logp-acidic [1, 6]: 1.2; logp-neutral [1, 7]: 1.53
CSc1ccccc1-c1ncc(C(=O)N(C)c2cccnc2)n1C [Example 98]	1.14	1.59		100	
CCN(C(=O)c1cncn1C)c1cccnc1 [VII-ethyl]					chromatographic logP [1, 5]: 0.78
C#Cc1ncc(C(=O)N(C)c2cccnc2)n1C [XIV, 2-ethynyl-N,1-dimethyl-N-(pyridin-3-yl)-1H-imidazole-5-carboxamide]					chromatographic logP [1, 4]: 0.53; chromatographic logP [1, 5]: 0.87
Cc1cc(F)c(-c2ncc(C(=O)O)n2C)cc1SCC(F)(F)F [XIX]					chromatographic logP [1, 4]: 1.83; chromatographic logP [1, 5]: 0.95
CN(C(=O)c1cnc(Br)n1C)c1cccnc1 [XI]					chromatographic logP [1, 4]: 0.65; chromatographic logP [1, 5]: 0.93
Cc1cc(F)c(B2OC(C)(C)C(C)(C)O2)cc1SCC(F)(F)F [XVI, 2-{2-fluoro-4-methyl-5-[(2,2,2-trifluoroethyl)sulphanyl]phenyl}-4,4,5,5-tetramethyl-1,3,2-dioxaborolane]					chromatographic logP [1, 4]: 4.89; chromatographic logP [1, 5]: 4.8
COC(=O)c1cnc(-c2cc(SCC(F)(F)F)c(C)cc2F)n1C [XVIII, methyl 2-{2-fluoro-4-methyl-5-[(2,2,2-trifluoroethyl)sulphanyl]phenyl}-1-methyl-1H-imidazole-5-carboxylate]					chromatographic logP [1, 4]: 3.09; chromatographic logP [1, 5]: 3.19

From patent US10807968B2, “Substituted 2-(het)arylimidazolylcarboxyamides as pesticides” (Bayer CropScience Aktiengesellschaft, priority 2016, dated 2020)
